Laboratory results from patent US10653780B2, “Amino lipids and methods for the delivery of nucleic acids” (ARBUTUS BIOPHARMA CORPORATION, priority 2008, dated 2020).
Where two headings read alike, the source gives them in different places. Marks after values point to notes of the source that are not given here.

What was measured:
[1] = test system: Factor VII (FVII); settings: for survival: 15 mg/kg dose, mice
Text: It is well established that in vivo RNAi silencing of specific hepatocyte proteins can be achieved following intravenous (i.v.) administration of siRNA's encapsulated in, or associated with, select nanoparticles designed for intracellular delivery. […] In this Example, rational design in combination with in vivo screening were applied to systematically modify the structure of DLinDMA and identify molecular features that enhance or reduce cationic lipid potency. More than 30 lipids were synthesized and incorporated into nucleic acid-lipid particles, i.e., lipid nanoparticles (LN) encapsulating an siRNA (LN-siRNA) targeting Factor VII (FVII), a blood clotting component synthesized and secreted by hepatocytes that is readily measured in serum. LN-siRNA systems were prepared using the same process, lipid molar ratios and particle size to minimize effects on activity resulting from formulation characteristics other than the cationic lipid. Each formulation was administered as a single bolus injection over a range of doses enabling an estimate of the siRNA dose required to reduce FVII serum protein concentrations by 50% after 24 h (ED50).
FVII activity was evaluated in FVII siRNA-treated animals at 24 hours after intravenous (bolus) injection in C57BL/6 mice or 48 hours after intravenous (bolus) injection in SD rats. Six to 8 week old, female C57Bl/6 mice were obtained from Charles River Laboratories and acclimated for one week prior to use in studies. Animals were held in a pathogen-free environment and all procedures involving animals were performed in accordance with the guidelines established by the Canadian Council on Animal Care.
LN-siRNA systems containing Factor VII siRNA were diluted to the appropriate concentrations in sterile phosphate buffered saline immediately prior to use, and the formulations were administered intravenously via the lateral tail vein in a total volume of 10 ml/kg. After 24 h, animals were anaesthetised with Ketamine/Xylazine and blood was collected by cardiac puncture and processed to serum (Microtainer Serum Separator Tubes; Becton Dickinson, Franklin Lakes, N.J., USA). Serum was tested immediately or stored at −70° C. for later analysis for serum Factor VII levels.
FVII was measured using a commercially available kit (Biophen FVII Kit™; Aniara Corp., Mason, Ohio), following the manufacturer's instructions at a microplate scale. FVII reduction was determined against untreated control animals, and the results were expressed as % Residual FVII. Five dose levels (0.1, 0.3, 0.5, 1.0, and 3.0 mg/kg) were typically used.
Serum Factor VII levels were determined using the colorimetric Biophen VII assay kit (Anaira, USA). Briefly, serially diluted pooled control serum (200%-3.125%) and appropriately diluted plasma samples from treated animals were analyzed using the Biophen VII kit according to manufacturer's instructions in 96-well, flat bottom, non-binding polystyrene assay plates (Corning, Corning, N.Y.) and absorbance at 405 nm was measured. A calibration curve was generated using the serial diluted control serum and used to determine levels of Factor VII in serum from treated animals.
Initial studies were performed in eight to 10 week old, female C57BL/6 mice in two stages. In the first stage, the activity associated with the benchmark lipid DLinDMA was compared to the activity associated with modified forms of DLinDMA.

[2] = Pharmacokinetic and liver analysis of Cy-3 labeled siRNA in LN-siRNA systems; assay type: in vivo
Text: A fluorescently labeled siRNA (Cy-3 labeled luciferase siRNA, Alnylam Pharmaceuticals) was used to measure the siRNA content in plasma and liver after iv administration of LN-siRNA systems. The measurements were done by first extracting the Cy3-siRNA from the protein-containing biological matrix and then analyzing the amount of Cy-3 label in the extract by fluorescence. Two extraction methods were used, a chloroform/methanol mixture for the plasma samples and a commercial phenol/chloroform mixture (Trizol® reagent) with the tissue samples.
For plasma, blood was collected in EDTA-containing Vacutainer tubes and centrifuged at 1000×g for 10 min at 4-8° C. to isolate the plasma. The plasma was transferred to an eppendorf tube and either assayed immediately or stored in a −30° C. freezer. An aliquot of the plasma (100 μL maximum) was diluted to 500 μL with PBS (145 mM NaCl, 10 mM phosphate, pH 7.5), methanol (1.05 mL and chloroform (0.5 mL) was added, and the sample vortexed to obtain a clear, single phase solution. Water (0.5 mL) and chloroform (0.5 mL) was then added and the resulting emulsion sustained by mixing periodically for a minimum of 3 minutes. The mixture was centrifuged at 3000 rpm for 20 minutes and the top aqueous phase containing the Cy-3-label transferred to a new test tube. The fluorescence of the solution was measured using an SLM Fluorimeter at an excitation wavelength of 550 nm (2 nm bandwidth) and emission wavelength of 600 nm (16 nm bandwidth). A standard curve was generated by spiking aliquots of plasma from untreated animals with the Cy-3-siRNA containing formulation (0 to 15 μg/mL), and the sample processed as indicated above.
For liver, sections (400-500 mg) of tissue from saline-perfused animals was accurately weighed and homogenized in 1 mL of Trizol using Fastprep tubes. An aliquot of the homogenate (typically equivalent to 50 mg of tissue) was transferred to an eppendorf tube and additional Trizol added to 1 mL final. Chloroform (0.2 mL) was added, and the solution was mixed and incubated for 2-3 min before being centrifuged for 15 min at 12,000×g. An aliquot (0.5 mL) of the top Cy-3-containing aqueous phase was diluted with 0.5 mL of PBS and the fluorescence of the sample measured as described above.
The correlation between levels of siRNA delivered to the liver and FVII reduction was determined by encapsulating Cy-3 labeled siRNA in the selection of LN-siRNA systems covering a spectrum of in vivo activities shown in Table 8. Cy-3 fluorescence was measured in plasma and liver tissue 0.5 and 3.0 h post injection.

[3] = Table 5, siRNA dose reducing serum FVII protein by 50% at 24 h, PFV LN-siRNA 40/10/40/10
[4] = Table 4, siRNA dose reducing serum FVII protein by 50% at 24 h, PFV LN-siRNA 40/10/40/10
[5] = Table 8, FVII ED50 of the LN-siRNA system
[6] = Table 6, siRNA dose reducing serum FVII protein by 50% at 24 h, PFV LN-siRNA 40/10/40/10
[7] = Table 3, siRNA dose reducing serum FVII protein by 50% at 24 h, single i.v. bolus, PFV LN-siRNA 40/10/40/10

Compound: CCCCCCCC/C=C\CCCCCCCC(=O)OCC(CN(C)C)OC(=O)CCCCCCC/C=C\CCCCCCCC (stereo not drawn) [DODAP, 1,2-dioleoyl-3-dimethylammonium propane, reference compound]
- ED50 [1, 3]: >25 mg/kg
- fold less active than DLinDMA ([1]; mouse FVII model): more than 25 fold

Compound: CCCCC/C=C\C/C=C\CCCCCCCCOC(COC(=O)CCCCCCC/C=C\C/C=C\CCCCC)CN(C)C (stereo not drawn) [DLin-2-DMAP, 1-Linoleoyl-2-linoeyloxy-3-dimethylaminopropane]
- ED50 [1, 4]: 5 to 12 mg/kg
- ED50 [1, 5]: 5 to 12 mg/kg
- Liver Cy-3 siRNA ([2]; 0.5 h post injection): 20.5 % injected dose
- Plasma Cy-3 siRNA ([2]; 0.5 h post injection): 17.5 % injected dose
- Liver Cy-3 siRNA ([2]; 3.0 h post injection): 2.5 % injected dose
- Plasma Cy-3 siRNA ([2]; 3.0 h post injection): 8.8 % injected dose

Compound: CCCC/C=C\CCCCCCCC(=O)OCC(CN(C)C)OC(=O)CCCCCCC/C=C\CCCC (stereo not drawn) [DMDAP]
- FVII activity at maximum dose tested ([1]; 10 mg/kg maximum dose): no activity was observed
- ED50 [1, 3]: >10 mg/kg

Compound: CCCCCCCC/C=C\CCCCCCCCC1(CCCCCCCC/C=C\CCCCCCCC)OCC(CN(C)C)O1 (stereo not drawn) [DO-K-DMA]
- ED50 ([1]; Table 7, siRNA dose reducing serum FVII protein by 50% at 24 h, PFV LN-siRNA 40/10/40/10): ~1.0 mg/kg
- ED50 ([1]; siRNA dose reducing serum FVII protein by 50% at 24 h, PFV LN-siRNA 40/10/40/10): ~1.0 mg/kg

Compound: CCCCC/C=C\C/C=C\CCCCCCCCC1(CCCCCCCC/C=C\C/C=C\CCCCC)OC(CN(C)C)C(CN(C)C)O1 (stereo not drawn) [DLin-K^2-DMA, 2,2-Dilinoleyl-4,5-bis(dimethylaminomethyl)-[1,3]-dioxolane]
- ED50 [1, 6]: ~0.4 mg/kg

Compound: CCCCC/C=C\C/C=C\CCCCCCCCOCC(COC(=O)CN(C)C)OCCCCCCCC/C=C\C/C=C\CCCCC (stereo not drawn) [DLinDAC, 1,2-Dilinoleyloxy-3-(dimethylamino) acetoxypropane]
- ED50 [1, 7]: 5 to 12 mg/kg
- ED50 [1, 5]: 12 to 25 mg/kg

Compound: CCCCC/C=C\C/C=C\CCCCCCCCC1(CCCCCCCC/C=C\C/C=C\CCCCC)OCC([N+](C)(C)C)O1.[Cl-] (stereo not drawn) [DLin-K-TMA.Cl, 2,2-Dilinoleyl-4-trimethylamino-[1,3]-dioxolane Chloride]
- FVII activity ([1]; 5 mg/kg): No activity observed
- body weight ([1]; 5 mg/kg, data not shown): significant weight loss
- FVII activity ([1]; 5 mg/kg, listed as DLin-K-TMA): No activity was observed
- survival [1]: lethal
- survival ([1]; listed as DLin-K-TMA): did not survive
- ED50 [1, 6]: >5^a mg/kg

Compound: CCCCCCCC/C=C\CCCCCCCCNC(=O)OCC(CN(C)C)OC(=O)NCCCCCCCC/C=C\CCCCCCCC (stereo not drawn) [DO-C-DAP]
- FVII activity at maximum dose tested ([1]; 10 mg/kg maximum dose): inactive
- ED50 [1, 3]: >10 mg/kg

Compound: CCCCC/C=C\C/C=C\CCCCCCCCNC(=O)OCC(CN(C)C)OC(=O)NCCCCCCCC/C=C\C/C=C\CCCCC (stereo not drawn) [DLin-C-DAP, 1,2-Dilinoleylcarbamoyloxy-3-dimethylaminopropane]
- ED50 [1, 4]: 12 to 25 mg/kg
- ED50 [1, 5]: 12 to 25 mg/kg
- Liver Cy-3 siRNA ([2]; 0.5 h post injection): 28.5 % injected dose
- Plasma Cy-3 siRNA ([2]; 0.5 h post injection): 69.4 % injected dose
- Liver Cy-3 siRNA ([2]; 3.0 h post injection): 13.5 % injected dose
- Plasma Cy-3 siRNA ([2]; 3.0 h post injection): 19.0 % injected dose

Compound: 1,2-Dilinoleyloxy-3-(2-N,N-dimethylamino) ethoxypropane [DLin-EG-DMA]
- ED50 [1, 7]: 5 to 12 mg/kg

Compound: 2,2-dilinoleyl-4-N-morpholino-[1,3]-dioxolane [DLin-K-MA]
- FVII activity at maximum dose tested ([1]; 15 mg/kg maximum dose): inactive
- ED50 [1, 6]: >15 mg/kg
- FVII ED50 ([1]; Table 11): >15 mg/kg
